# Patent US8946438B2, “Benzamides, production thereof, and use thereof as medicaments” (Boehringer Ingelheim International GmbH, priority 2008, dated 2015)
# Molecular target: p38 MAP-kinase (Homo sapiens, UniProt Q16539)
# Test: Enzymatic assay: inhibition of p38 MAP-kinase (phosphorylation of GST-tagged ATF2, chemoluminescence bead readout)
# Type: biochemical
# Conditions: inhibitor 1 μM; activated p38 MAP-kinase 1 nM; 4 h preincubation; ATP 100 μM; ATF2 10 nM; read-out: % inhibitory effect at 1 μM
# Protocol: In this, the amount of a substrate phosphorylated by the kinase is quantified. The test is carried out as follows:
# The kinase reaction is carried out in the presence of HEPES (20 mM, pH 7), MgCl2 (10 mM), DTT (1 mM) and TWEEN20 (0.01%). First, dimethylsulphoxide or inhibitor (final concentration: 1 μM) dissolved in dimethylsulphoxide are placed in a reaction vessel. Then the activated p38 MAP-kinase (final concentration 1 nM) is added and the mixture is incubated for 4 h at ambient temperature. Then a mixture of substrate (GST-tagged ATF2) and ATP is added and everything is incubated together for a further hour (final concentration ATP: 100 μM; final concentration ATF2: 10 nM).
# The concentration of phosphorylated ATF2 is quantified by chemoluminescence-induced light emission. For this, a glutathione donor bead (final concentration: 5 μg/ml) which binds to the gluthathione on the ATF2 and phospho-ATF2 antibodies are added to the reaction mixture (final concentration: 3 nM; this binds the phosphate group added by the kinase reaction) to which a Protein A Acceptor Bead (final concentration: 5 μg/ml) binds. These components are dissolved in a buffer which contains 20 mM HEPES pH 7.0, 200 mM NaCL, 80 mM EDTA as well as 0.3% BSA. This reaction mixture is incubated in the dark for 1 hour at ambient temperature. When these beads come physically close, visible light is emitted which is measured in a photometer at 520-620 nm.
# To determine the inhibitory activity of the compounds according to the invention a calculation is made to determine the percentage by which the kinase activity is inhibited at a fixed inhibitor concentration of 1 μM. The maximum activity is determined by non-inhibited kinase. The minimum activity or nonspecific background activity is determined using a reaction mixture without kinase. […] Table 2 summarises the degree of inhibition of the enzyme p38 MAP-kinase—as described hereinbefore—of the compounds according to the invention detailed in the section “Preparation of the final compounds”.
# Chain of p38 MAP-kinase (Q16539 whole entry): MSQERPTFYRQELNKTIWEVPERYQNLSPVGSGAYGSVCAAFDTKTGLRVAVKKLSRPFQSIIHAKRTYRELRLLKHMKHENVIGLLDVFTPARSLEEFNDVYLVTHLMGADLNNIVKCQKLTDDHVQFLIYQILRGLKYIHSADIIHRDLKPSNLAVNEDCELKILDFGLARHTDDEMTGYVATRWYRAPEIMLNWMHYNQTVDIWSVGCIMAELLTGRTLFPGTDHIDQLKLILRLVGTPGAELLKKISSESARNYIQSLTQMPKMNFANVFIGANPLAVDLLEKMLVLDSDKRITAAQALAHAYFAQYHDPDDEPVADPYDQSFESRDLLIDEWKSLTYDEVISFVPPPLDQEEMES
row,SMILES,inhibition at 1 µM [%]
1,"COc1c(NC(=O)c2ccc(C)c(Oc3ccnc(N4CC[C@@H](N(C)C)C4)n3)c2)cc(C(C)(C)C)cc1NS(C)(=O)=O [4(6), (R)-N-(5-tert-butyl-3-methanesulphonylamino-2-methoxy-phenyl)-3-[2-(3-dimethylamino-pyrrolidin-1-yl)-pyrimidin-4-yloxy]-4-methyl-benzamide]",98
2,"COc1c(NC(=O)c2ccc(C)c(Oc3ccnc(N4CC[C@H](N(C)C)C4)n3)c2)cc(C(C)(C)C)cc1NS(C)(=O)=O [4(7), (S)-N-(5-tert-butyl-3-methanesulphonylamino-2-methoxy-phenyl)-3-[2-(3-dimethylamino-pyrrolidin-1-yl)-pyrimidin-4-yloxy]-4-methyl-benzamide]",98.6
3,"COc1c(NC(=O)c2ccc(C)c(Oc3ccnc(N4CCC(N(C)C)CC4)n3)c2)cc(C(C)(C)C)cc1NS(C)(=O)=O [4(8), N-(5-tert-butyl-3-methanesulphonylamino-2-methoxy-phenyl)-3-[2-(4-dimethylamino-piperidin-1-yl)-pyrimidin-4-yloxy]-4-methyl-benzamide]",98.6
4,"COc1c(NC(=O)c2ccc(C)c(Oc3ccnc(NC4CCN(C)CC4)n3)c2)cc(C(C)(C)C)cc1NS(C)(=O)=O [4(9), N-(5-tert-butyl-3-methanesulphonylamino-2-methoxy-phenyl)-4-methyl-3-[2-(1-methyl-piperidin-4-ylamino)-pyrimidin-4-yloxy]-benzamide]",98.6
5,"COc1c(NC(=O)c2ccc(C)c(Oc3cc(N4CCC(N(C)C)CC4)ncn3)c2)cc(C(C)(C)C)cc1NS(C)(=O)=O [4(11), N-(5-tert-butyl-3-methanesulphonylamino-2-methoxy-phenyl)-3-[6-(4-dimethylamino-piperidin-1-yl)-pyrimidin-4-yloxy]-4-methyl-benzamide]",99.1
6,"COc1c(NC(=O)c2ccc(Cl)c(Oc3ccnc(NC4CCN(C)CC4)n3)c2)cc(C(C)(C)C)cc1NS(C)(=O)=O [4(15), N-(5-tert-butyl-3-methanesulphonylamino-2-methoxy-phenyl)-4-chloro-3-[2-(1-methyl-piperidin-4-ylamino)-pyrimidin-4-yloxy]-benzamide]",99.6
7,"COc1c(NC(=O)c2ccc(C)c(Oc3ccnc(N(C)C4CCN(C)CC4)n3)c2)cc(C(C)(C)C)cc1NS(C)(=O)=O [4(16), N-(5-tert-butyl-3-methanesulphonylamino-2-methoxy-phenyl)-4-methyl-3-{2-[methyl-(1-methyl-piperidin-4-yl)-amino]-pyrimidin-4-yloxy}-benzamide]",99.4
8,"COc1c(NC(=O)c2ccc(C)c(Oc3ccnc(N[C@H]4CC[C@H](N(C)C)CC4)n3)c2)cc(C(C)(C)C)cc1NS(C)(=O)=O [4(18), N-(5-tert-butyl-3-methanesulphonylamino-2-methoxy-phenyl)-3-[2-(trans-4-dimethylamino-cyclohexylamino)-pyrimidin-4-yloxy]-4-methyl-benzamide]",99
9,"COc1c(NC(=O)c2ccc(C)c(Oc3ccnc(N(C)C4CCN(C)C4)n3)c2)cc(C(C)(C)C)cc1NS(C)(=O)=O (stereo not drawn) [4(19), N-(5-tert-butyl-3-methanesulphonylamino-2-methoxy-phenyl)-4-methyl-3-{2-[methyl-(1-methyl-pyrrolidin-3-yl)-amino]-pyrimidin-4-yloxy}-benzamide]",98.6
10,"COc1c(NC(=O)c2ccc(Cl)c(Oc3cc(C(=O)N4CCNCC4)ncn3)c2)cc(C(C)(C)C)cc1NS(C)(=O)=O [5(3), N-(5-tert-butyl-3-methanesulphonylamino-2-methoxy-phenyl)-4-chloro-3-[6-(piperazine-1-carbonyl)-pyrimidin-4-yloxy]-benzamide]",95

# Now from value to compound:
row,inhibition at 1 µM [%],SMILES
1,97,"CNc1cc(Oc2cc(C(=O)Nc3cc(C(C)(C)C)cc(NS(C)(=O)=O)c3OC)ccc2C)ncn1 [3(1), N-(5-tert-butyl-3-methanesulphonylamino-2-methoxy-phenyl)-4-methyl-3-(6-methylamino-pyrimidin-4-yloxy)-benzamide]"
2,96.8,"COc1c(NC(=O)c2ccc(C)c(Oc3cc(NCCO)ncn3)c2)cc(C(C)(C)C)cc1NS(C)(=O)=O [4(1), N-(5-tert-butyl-3-methanesulphonylamino-2-methoxy-phenyl)-3-[6-(2-hydroxy-ethylamino)-pyrimidin-4-yloxy]-4-methyl-benzamide]"
3,94.8,"COc1c(NC(=O)c2ccc(C)c(Oc3cc(NCCN(C)C)ncn3)c2)cc(C(C)(C)C)cc1NS(C)(=O)=O [4(2), N-(5-tert-butyl-3-methanesulphonylamino-2-methoxy-phenyl)-3-[6-(2-dimethylamino-ethylamino)-pyrimidin-4-yloxy]-4-methyl-benzamide]"
4,96.3,"COc1c(NC(=O)c2ccc(C)c(Oc3cc(N4CCNC(=O)C4)ncn3)c2)cc(C(C)(C)C)cc1NS(C)(=O)=O [4(3), N-(5-tert-butyl-3-methanesulphonylamino-2-methoxy-phenyl)-4-methyl-3-[6-(3-oxo-piperazin-1-yl)-pyrimidin-4-yloxy]-benzamide]"
5,97.5,"COc1c(NC(=O)c2ccc(C)c(Oc3cc(N4CCCC4)ncn3)c2)cc(C(C)(C)C)cc1NS(C)(=O)=O [4(4), N-(5-tert-butyl-3-methanesulphonylamino-2-methoxy-phenyl)-4-methyl-3-(6-pyrrolidin-1-yl-pyrimidin-4-yloxy)-benzamide]"
6,97.4,"COc1c(NC(=O)c2ccc(C)c(Oc3cc(N4CCOCC4)ncn3)c2)cc(C(C)(C)C)cc1NS(C)(=O)=O [4(5), N-(5-tert-butyl-3-methanesulphonylamino-2-methoxy-phenyl)-4-methyl-3-(6-morpholin-4-yl-pyrimidin-4-yloxy)-benzamide]"
7,100,"COc1c(NC(=O)c2ccc(C)c(Oc3cc(NC4CCN(C)CC4)ncn3)c2)cc(C(C)(C)C)cc1NS(C)(=O)=O [4(10), N-(5-tert-butyl-3-methanesulphonylamino-2-methoxy-phenyl)-4-methyl-3-[6-(1-methyl-piperidin-4-ylamino)-pyrimidin-4-yloxy]-benzamide]"
8,95.8,"COc1c(NC(=O)c2ccc(C)c(Oc3cc(N4CC[C@@H](N(C)C)C4)ncn3)c2)cc(C(C)(C)C)cc1NS(C)(=O)=O [4(12), N-(5-tert-butyl-3-methanesulphonylamino-2-methoxy-phenyl)-3-[6-((R)-3-dimethylamino-pyrrolidin-1-yl)-pyrimidin-4-yloxy]-4-methyl-benzamide]"
9,96.3,"COc1c(NC(=O)c2ccc(C)c(Oc3cc(N4CC[C@H](N(C)C)C4)ncn3)c2)cc(C(C)(C)C)cc1NS(C)(=O)=O [4(13), N-(5-tert-butyl-3-methanesulphonylamino-2-methoxy-phenyl)-3-[6-((S)-3-dimethylamino-pyrrolidin-1-yl)-pyrimidin-4-yloxy]-4-methyl-benzamide]"
10,99.4,"COc1c(NC(=O)c2ccc(Cl)c(Oc3cc(NC4CCN(C)CC4)ncn3)c2)cc(C(C)(C)C)cc1NS(C)(=O)=O [4(14), N-(5-tert-butyl-3-methanesulphonylamino-2-methoxy-phenyl)-4-chloro-3-[6-(1-methyl-piperidin-4-ylamino)-pyrimidin-4-yloxy]-benzamide]"
11,98.7,"COc1c(NC(=O)c2ccc(C)c(Oc3cc(N(C)C4CCN(C)CC4)ncn3)c2)cc(C(C)(C)C)cc1NS(C)(=O)=O [4(17), N-(5-tert-butyl-3-methanesulphonylamino-2-methoxy-phenyl)-4-methyl-3-{6-[methyl-(1-methyl-piperidin-4-yl)-amino]-pyrimidin-4-yloxy}-benzamide]"
12,95.6,"COc1c(NC(=O)c2ccc(C)c(Oc3cc(N(C)C4CCN(C)C4)ncn3)c2)cc(C(C)(C)C)cc1NS(C)(=O)=O (stereo not drawn) [4(20), N-(5-tert-butyl-3-methanesulphonylamino-2-methoxy-phenyl)-4-methyl-3-{6-[methyl-(1-methyl-pyrrolidin-3-yl)-amino]-pyrimidin-4-yloxy}-benzamide]"
13,96.8,"COc1c(NC(=O)c2ccc(C)c(Oc3cc(N4CCNCC4)ncn3)c2)cc(C(C)(C)C)cc1NS(C)(=O)=O [5(1), N-(5-tert-butyl-3-methanesulphonylamino-2-methoxy-phenyl)-4-methyl-3-(6-piperazin-1-yl-pyrimidin-4-yloxy)-benzamide]"
14,93.2,"COc1c(NC(=O)c2ccc(C)c(Oc3cc(C(=O)N4CCNCC4)ncn3)c2)cc(C(C)(C)C)cc1NS(C)(=O)=O [5(2), N-(5-tert-butyl-3-methanesulphonylamino-2-methoxy-phenyl)-4-methyl-3-[6-(piperazine-1-carbonyl)-pyrimidin-4-yloxy]-benzamide x trifluoroacetic acid]"
